Like-named read-outs stand apart in the source and are kept apart here.
System: MCH receptors
Assay: MCH receptor activity class (method not given)
[1] = activity class 1-3: percent of control at 10^-7 M or IC50
[2] = MCH receptor activity class 1-3 (percent of control at 10^-7 M or IC50)
[3] = class by percent of control at 10^-7 M or IC50
[4] = class by percent of control at 10^−7 M or IC50
[5] = MCH receptor, class by percent of control at 10^-7 M or IC50
[6] = activity class per percent of control at 10^-7 M or IC50

CC(C)[C@@H]1CC[C@@H](C)CC1OC(=O)N[C@H]1CC[C@@H](Nc2nc3c(c(N(C)C)n2)CCCC3)CC1 (stereo partly drawn) [compound 1593]
class [1]: 3 (Class 3 The value of percent of control at 10^−7 M was more than 60% or the value of IC50 was more than 200 nM.)

COC(=O)c1cccc(NC(=S)N[C@H]2CC[C@@H](Nc3nccc(N(C)C)n3)CC2)c1 [compound 2327]
class [2]: 3 (Class 3 The value of percent of control at 10^−7 M was more than 60% or the value of IC50 was more than 200 nM.)

CN(C)c1nc(N[C@H]2CC[C@@H](NC(=S)Nc3ccc4c(c3)OCO4)CC2)nc2c1CCCC2 [compound 1785]
class [3]: 3 (Class 3 The value of percent of control at 10^−7 M was more than 60% or the value of IC50 was more than 200 nM.)

Cc1cnc(NC[C@H]2CC[C@@H](NC(=O)c3ccc(C(F)(F)F)cc3)CC2)nc1N(C)C [compound 2720]
class [4]: 3 (Class 3 The value of percent of control at 10^−7 M was more than 60% or the value of IC50 was more than 200 nM.)

Cc1cc(N(C)C)nc(NC[C@H]2CC[C@@H](NC(=O)c3ccc(Br)c(C)c3)CC2)n1 [compound 2745, 4-bromo-N-[cis-4-({[4-(dimethylamino)-6-methylpyrimidin-2-yl]amino}methyl)cyclohexyl]-3-methylbenzamide]
class [4]: 2 (Class 2: The value of percent of control at 10^−7 M was from 40% to 60% or the value of IC′50 was from 50 nM to 200 nM.)

CN(C)c1nc(N[C@H]2CC[C@@H](NC(=S)NCc3ccco3)CC2)nc2c1CCCC2 [compound 1940]
class [5]: 3 (Class 3 The value of percent of control at 10^−7 M was more than 60% or the value of IC50 was more than 200 nM.)

C[C@H](NC(=O)c1ccccc1C(=O)N[C@H]1CC[C@@H](Nc2nccc(N(C)C)n2)CC1)c1ccccc1 [compound 897]
class [3]: 3 (Class 3 The value of percent of control at 10^−7 M was more than 60% or the value of IC50 was more than 200 nM.)

COc1cccc(CNC(=S)N[C@H]2CC[C@@H](Nc3nccc(N(C)C)n3)CC2)c1OC [compound 2333]
class [2]: 3 (Class 3 The value of percent of control at 10^−7 M was more than 60% or the value of IC50 was more than 200 nM.)

CN(C)c1nc(N[C@H]2CC[C@@H](NC(=S)Nc3cc(F)cc(F)c3)CC2)nc2c1CCCC2 [compound 1982]
class [5]: 3 (Class 3 The value of percent of control at 10^−7 M was more than 60% or the value of IC50 was more than 200 nM.)

CN(C)c1nc(N[C@H]2CC[C@@H](CNC(=O)c3cc(C(F)(F)F)cc(C(F)(F)F)c3)CC2)nc2c1CCCC2 [compound 640]
class [3]: 3 (Class 3 The value of percent of control at 10^−7 M was more than 60% or the value of IC50 was more than 200 nM.)

Cc1cccc(C(C)C)c1NC(=O)N[C@H]1CC[C@@H](Nc2cc(N(C)C)c3ccccc3n2)CC1 [compound 2109, N-(cis-4-{[4-(dimethylamino)quinolin-2-yl]amino}cyclohexyl)-N′-(2-isopropyl-6-methylphenyl)urea]
class [3]: 2 (Class 2: The value of percent of control at 10^−7 M was from 40% to 60% or the value of IC′50 was from 50 nM to 200 nM.)

CCN(CC)c1ccc(NC(=S)N[C@H]2CC[C@@H](Nc3nc4c(c(N(C)C)n3)CCCC4)CC2)cc1 [compound 2012]
class [5]: 3 (Class 3 The value of percent of control at 10^−7 M was more than 60% or the value of IC50 was more than 200 nM.)

CN(C)c1ccnc(N[C@H]2CC[C@@H](CNC(=O)c3ccc4c(c3)OCO4)CC2)n1 [compound 392]
class [3]: 3 (Class 3 The value of percent of control at 10^−7 M was more than 60% or the value of IC50 was more than 200 nM.)

CN(C)c1cc(N[C@H]2CC[C@@H](NC(=S)Nc3ccc4c(c3)OCCO4)CC2)nc2ccccc12 [compound 2304]
class [2]: 3 (Class 3 The value of percent of control at 10^−7 M was more than 60% or the value of IC50 was more than 200 nM.)

Cc1cnc(N[C@H]2CC[C@@H](NC(=O)C[S+]([O-])c3ccccc3Cl)CC2)nc1N(C)C (relative stereo) [compound 2881, 2-[(2-chlorophenyl)sulfinyl]-N-(cis-4-{[4-(dimethylamino)-5-methylpyrimidin-2-yl]amino}cyclohexyl)acetamide]
class [4]: 1 (Class 1: The value of percent of control at 10^−7 M was less than 40% or the value of IC50 was less than 50 nM.)

CN(C)c1nc(N[C@H]2CC[C@@H](NC(=O)NC(=O)c3ccccc3)CC2)nc2c1CCCC2 [compound 1809]
class [3]: 3 (Class 3 The value of percent of control at 10^−7 M was more than 60% or the value of IC50 was more than 200 nM.)

CN(C)c1ccnc(N[C@H]2CC[C@@H](NC(=O)c3ccc(-c4ccc(Cl)cc4)o3)CC2)n1 [compound 836]
class [3]: 1 (Class 1: The value of percent of control at 10^−7 M was less than 40% or the value of IC50 was less than 50 nM.)

COc1ccc(CNC[C@H]2CC[C@@H](Nc3nccc(N(C)C)n3)CC2)c(OC)c1 [compound 1252]
class [3]: 2 (Class 2: The value of percent of control at 10^−7 M was from 40% to 60% or the value of IC′50 was from 50 nM to 200 nM.)

CN(C)c1ccnc(N[C@H]2CC[C@@H](NCCc3cccc(Cl)c3)CC2)n1 [compound 1514]
class [1]: 3 (Class 3 The value of percent of control at 10^−7 M was more than 60% or the value of IC50 was more than 200 nM.)

CN(C)c1nc(N[C@H]2CC[C@@H](NC(=O)Nc3cc(F)cc(C(F)(F)F)c3)CC2)nc2c1CCCC2 [compound 1872]
class [3]: 3 (Class 3 The value of percent of control at 10^−7 M was more than 60% or the value of IC50 was more than 200 nM.)

COc1ccc2[nH]cc(CNC[C@H]3CC[C@@H](Nc4cc(N(C)C)c5ccccc5n4)CC3)c2c1 [compound 1127]
class [6]: 3 (Class 3 The value of percent of control at 10^−7 M was more than 60% or the value of IC50 was more than 200 nM.)

CN(C)c1nc(N[C@H]2CC[C@@H](NC(=S)Nc3ccc(S(N)(=O)=O)cc3)CC2)nc2c1CCCC2 [compound 2051]
class [5]: 3 (Class 3 The value of percent of control at 10^−7 M was more than 60% or the value of IC50 was more than 200 nM.)

Cc1cc(N(C)C)nc(N[C@H]2CC[C@@H](C(=O)NCc3ccc(Cl)c(Cl)c3)CC2)n1 [compound 2817, cis-N-(3,4-dichlorobenzyl)-4-{[4-(dimethylamino)-6-methylpyrimidin-2-yl]amino}cyclohexanecarboxamide]
class [4]: 1 (Class 1: The value of percent of control at 10^−7 M was less than 40% or the value of IC50 was less than 50 nM.)

Cc1cnc(N[C@H]2CC[C@@H](NCc3ccc(Cl)c(Cl)c3)CC2)nc1N(C)C [compound 3002]
class [4]: 3 (Class 3 The value of percent of control at 10^−7 M was more than 60% or the value of IC50 was more than 200 nM.)

CCOC(=O)NC[C@H]1CC[C@@H](Nc2nc3c(c(N(C)C)n2)CCCC3)CC1 [compound 1607]
class [1]: 3 (Class 3 The value of percent of control at 10^−7 M was more than 60% or the value of IC50 was more than 200 nM.)

CN(C)c1nc(N[C@H]2CC[C@@H](CNCc3c[nH]c4ccc(Br)cc34)CC2)nc2c1CCCC2 [compound 1372]
class [3]: 1 (Class 1: The value of percent of control at 10^−7 M was less than 40% or the value of IC50 was less than 50 nM.)

Cc1cc(N(C)C)nc(N[C@H]2CC[C@@H](NC(=O)c3ccc(F)c(C(F)(F)F)c3)CC2)n1 [compound 2961]
class [4]: 1 (Class 1: The value of percent of control at 10^−7 M was less than 40% or the value of IC50 was less than 50 nM.)

Cc1cc(C(=O)N[C@H]2CC[C@@H](Nc3cc(N(C)C)c4ccccc4n3)CC2)c(C(F)(F)F)o1 [compound 70]
class [5]: 3 (Class 3 The value of percent of control at 10^−7 M was more than 60% or the value of IC50 was more than 200 nM.)

CN(C)c1cc(N[C@H]2CC[C@@H](NC(=O)c3ccc(OC(F)(F)F)c(Cl)c3)CC2)nc2ccccc12 [compound 144]
class [5]: 3 (Class 3 The value of percent of control at 10^−7 M was more than 60% or the value of IC50 was more than 200 nM.)

COc1ccc(CNC(=S)N[C@H]2CC[C@@H](Nc3nc4c(c(N(C)C)n3)CCCC4)CC2)cc1 [compound 2018]
class [5]: 3 (Class 3 The value of percent of control at 10^−7 M was more than 60% or the value of IC50 was more than 200 nM.)

Cc1cc(N[C@H]2CC[C@@H](NC(=O)c3cccc(Cl)c3)CC2)nc2ccccc12 [Example 2547, 3-chloro-N-{cis-4-[(4-methylquinolin-2-yl)amino]cyclohexyl}benzamide]
class: 1

COc1ccc(OC)c(CC(=O)NC[C@H]2CC[C@@H](Nc3nccc(N(C)C)n3)CC2)c1 [compound 380]
class [3]: 3 (Class 3 The value of percent of control at 10^−7 M was more than 60% or the value of IC50 was more than 200 nM.)

C=C(C)c1cccc(C(C)(C)NC(=O)N[C@H]2CC[C@@H](Nc3nc4c(c(N(C)C)n3)CCCC4)CC2)c1 [compound 1698]
class [1]: 3 (Class 3 The value of percent of control at 10^−7 M was more than 60% or the value of IC50 was more than 200 nM.)

Cc1cc(C)c(CNC[C@H]2CC[C@@H](Nc3nc4c(c(N(C)C)n3)CCCC4)CC2)c(C)c1 [compound 1423]
class [3]: 3 (Class 3 The value of percent of control at 10^−7 M was more than 60% or the value of IC50 was more than 200 nM.)

C=CCOC(=O)NC[C@H]1CC[C@@H](Nc2cc(N(C)C)c3ccccc3n2)CC1 [compound 1570]
class [1]: 3 (Class 3 The value of percent of control at 10^−7 M was more than 60% or the value of IC50 was more than 200 nM.)

CN(C)c1ccnc(N[C@H]2CC[C@@H](NC(=O)c3cc(Br)c(Br)o3)CC2)n1 [compound 845]
class [3]: 1 (Class 1: The value of percent of control at 10^−7 M was less than 40% or the value of IC50 was less than 50 nM.)

CN(C)c1nc(N[C@H]2CC[C@@H](NC(=O)c3ccc([N+](=O)[O-])cc3)CC2)nc2c1CCCC2 [compound 1046]
class [6]: 3 (Class 3 The value of percent of control at 10^−7 M was more than 60% or the value of IC50 was more than 200 nM.)

CN(C)c1ccnc(N[C@H]2CC[C@@H](NC(=O)c3ccc(F)c(F)c3F)CC2)n1 [compound 342]
class [3]: 3 (Class 3 The value of percent of control at 10^−7 M was more than 60% or the value of IC50 was more than 200 nM.)

CN(C)c1cc(N[C@H]2CC[C@@H](CNC(=O)c3cccs3)CC2)nc2ccccc12 [compound 179]
class [5]: 3 (Class 3 The value of percent of control at 10^−7 M was more than 60% or the value of IC50 was more than 200 nM.)

Source: US20050197350A1, “Novel quinoline, tetrahydroquinazoline, and pyrimidine derivatives and methods of treatment related to the use thereof” (TAISHO PHARMACEUTICAL CO., LTD., priority 2003, published 2005)
